Laboratory results taken from ChEMBL document CHEMBL1201862, “PubChem BioAssay data set” (2004).
Values joined by “and” are separate entries in the source; they are usually repeats but may differ in a detail not shown here. Equal values may be shown once. Active and inactive are the calls of the source.

How the values were obtained:
[1] = biological target: Heat shock protein HSP 90-alpha (Homo sapiens, UniProt P07900); test: Luminescence-based dose response biochemical high throughput screening assay for inhibitors of the Heat Shock Protein 90 (HSP90). [Related pubchem assays: 1831 (Summary AID.), 1846 (Confirmation screen.), 1789 (Primary screen.)]
[2] = biological target: T1, Heat shock factor protein 1 (Mus musculus, UniProt P38532); test: HSF1 potentiators in luciferase reporter cells, confirmation, cell-based, NIH3T3, luminescence, dose retest (AID 435004); assay type: functional;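 note: stress induced by proteasome inhibitor MG132 added 30 min after compound; luciferase reporter driven by HSF1 response element in NIH3T3 cells; actives raise luminescence as potentiators of the MG132 stress response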
T1 sequence (P38532 whole entry): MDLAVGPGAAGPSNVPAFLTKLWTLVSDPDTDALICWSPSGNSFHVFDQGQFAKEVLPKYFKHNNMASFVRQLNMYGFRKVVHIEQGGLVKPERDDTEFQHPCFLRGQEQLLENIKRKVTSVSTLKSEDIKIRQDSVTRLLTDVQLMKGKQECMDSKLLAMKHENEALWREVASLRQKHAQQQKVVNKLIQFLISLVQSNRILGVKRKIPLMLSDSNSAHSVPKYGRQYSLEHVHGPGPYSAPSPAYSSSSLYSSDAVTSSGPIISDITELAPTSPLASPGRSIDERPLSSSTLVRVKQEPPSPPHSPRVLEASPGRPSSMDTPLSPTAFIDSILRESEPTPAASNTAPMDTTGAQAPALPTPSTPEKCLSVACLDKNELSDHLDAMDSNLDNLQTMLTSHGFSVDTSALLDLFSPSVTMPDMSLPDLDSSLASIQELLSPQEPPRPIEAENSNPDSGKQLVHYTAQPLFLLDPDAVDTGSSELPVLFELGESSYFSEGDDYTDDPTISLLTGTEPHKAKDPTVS

Kallikrein-7 = Kallikrein-7 (Homo sapiens, UniProt P49862); test: Fluorescence Intensity-based biochemical primary high throughput dose response assay to identify activators of kallikrein-7 (K7) zymogen.
[3] = biological target: Sphingosine 1-phosphate receptor 2 (Homo sapiens, UniProt O95136); test: Dose Response Cell Based Assay for Agonists of the S1P2 Receptor. [Related pubchem assays: 729, 736, 843 ]; assay type: functional
[4] = biological target: T2, Nuclear receptor subfamily 0 group B member 1 (Homo sapiens, UniProt P51843); test: Luminescence-based cell-based high throughput dose response assay for inhibitors of the orphan nuclear receptor subfamily 0, group B, member 1 (DAX1; NR0B1). [Related pubchem assays (depositor defined):AID504766, AID504790]; assay type: functional
T2 sequence (P51843 whole entry): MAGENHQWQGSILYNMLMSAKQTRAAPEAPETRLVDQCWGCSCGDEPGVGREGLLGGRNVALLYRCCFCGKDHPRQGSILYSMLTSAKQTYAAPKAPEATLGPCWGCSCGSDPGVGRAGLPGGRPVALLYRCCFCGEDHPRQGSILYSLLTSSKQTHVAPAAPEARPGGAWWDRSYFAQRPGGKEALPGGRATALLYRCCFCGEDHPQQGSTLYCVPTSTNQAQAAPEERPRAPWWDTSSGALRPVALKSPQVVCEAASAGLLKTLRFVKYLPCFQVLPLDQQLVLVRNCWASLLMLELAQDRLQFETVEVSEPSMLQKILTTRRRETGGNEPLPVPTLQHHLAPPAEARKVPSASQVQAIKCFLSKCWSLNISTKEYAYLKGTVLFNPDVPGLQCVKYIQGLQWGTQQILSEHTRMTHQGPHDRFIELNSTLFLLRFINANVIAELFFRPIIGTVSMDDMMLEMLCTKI

[5] = biological target: T3, Oxysterols receptor LXR-beta (Homo sapiens, UniProt P55055); assay type: functional, cell-based;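 note: Cell-based luminescence dose-response assay of agonist activity at LXR, run as a confirmatory counterscreen to a daf-12 agonist screen; HEK293 cells with Gal4-LXR fusion and GAL4-driven luciferase reporter; agonist potency from rising luciferase signal of a Gal4-LXR reporter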
T3 sequence (P55055 whole entry): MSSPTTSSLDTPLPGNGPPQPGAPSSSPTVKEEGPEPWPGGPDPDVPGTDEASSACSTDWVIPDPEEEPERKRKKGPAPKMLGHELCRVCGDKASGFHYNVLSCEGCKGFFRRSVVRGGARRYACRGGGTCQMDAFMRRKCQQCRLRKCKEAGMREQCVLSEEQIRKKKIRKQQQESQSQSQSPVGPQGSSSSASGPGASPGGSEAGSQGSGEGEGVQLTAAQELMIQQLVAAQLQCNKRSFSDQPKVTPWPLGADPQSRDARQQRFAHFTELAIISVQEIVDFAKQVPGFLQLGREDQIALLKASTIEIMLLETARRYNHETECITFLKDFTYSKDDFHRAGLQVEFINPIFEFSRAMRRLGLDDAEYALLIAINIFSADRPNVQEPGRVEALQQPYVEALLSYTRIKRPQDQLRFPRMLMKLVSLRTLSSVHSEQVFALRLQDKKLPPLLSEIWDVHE

HEK293 [6] = test: cells; assay type: functional, cell-based; settings: Homo sapiens
Tumor necrosis factor = Tumor necrosis factor (Homo sapiens, UniProt P01375); test: TNFa-triggered NF-kB activation inhibitors, SAR follow-up, cell-based, revised (AID 2337); assay type: functional
HEK293 [7] = test: cells; assay type: functional, cell-based; settings: Homo sapiens; remark: listed apart in the source
HEK293 [8] = test: cells; assay type: functional, cell-based; settings: Homo sapiens; remark: listed apart in the source
HEK293 [9] = test: NOD1 signaling inhibitors, primary screen, cell-based, luminescence, uHTS (AID 1578); assay type: functional; settings: Homo sapiens
[10] = biological target: T4, Nucleotide-binding oligomerization domain-containing protein 1 (Homo sapiens, UniProt Q9Y239); test: NOD1 signaling inhibitors, SAR follow-up, revised (AID 2333); assay type: functional
T4 sequence (Q9Y239 whole entry): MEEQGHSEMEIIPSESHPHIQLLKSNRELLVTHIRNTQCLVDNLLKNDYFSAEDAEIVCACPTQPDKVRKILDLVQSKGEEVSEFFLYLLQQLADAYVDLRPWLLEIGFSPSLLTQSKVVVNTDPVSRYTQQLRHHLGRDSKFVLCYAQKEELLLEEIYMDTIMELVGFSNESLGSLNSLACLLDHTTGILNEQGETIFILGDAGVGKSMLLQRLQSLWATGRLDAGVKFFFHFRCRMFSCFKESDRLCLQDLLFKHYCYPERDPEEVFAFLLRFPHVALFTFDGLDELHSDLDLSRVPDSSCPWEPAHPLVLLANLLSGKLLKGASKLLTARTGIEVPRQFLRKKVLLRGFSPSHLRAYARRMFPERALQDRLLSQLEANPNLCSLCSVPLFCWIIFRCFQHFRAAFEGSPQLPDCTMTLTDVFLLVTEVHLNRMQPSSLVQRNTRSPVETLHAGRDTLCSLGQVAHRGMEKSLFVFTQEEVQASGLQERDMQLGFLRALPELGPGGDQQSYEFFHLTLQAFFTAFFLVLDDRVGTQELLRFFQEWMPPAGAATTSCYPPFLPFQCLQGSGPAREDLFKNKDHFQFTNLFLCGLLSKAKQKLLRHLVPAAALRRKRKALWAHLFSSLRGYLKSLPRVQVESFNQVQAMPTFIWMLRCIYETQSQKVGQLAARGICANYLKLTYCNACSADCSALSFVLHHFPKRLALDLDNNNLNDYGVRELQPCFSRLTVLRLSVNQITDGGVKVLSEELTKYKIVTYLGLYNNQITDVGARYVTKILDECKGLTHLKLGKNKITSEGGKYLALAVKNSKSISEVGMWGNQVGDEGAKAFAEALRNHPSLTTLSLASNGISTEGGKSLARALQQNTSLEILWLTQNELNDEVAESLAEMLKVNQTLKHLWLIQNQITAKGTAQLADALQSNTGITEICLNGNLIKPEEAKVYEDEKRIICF

[11] = ADAM10 inhibitors, peptide cleavage, dose response, biochemical, QFRET (AID 743254);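 note: ADAM10 enzyme with the DM2 quenched FRET peptide as substrate; EDANS fluorescence gain as the protease cuts the substrate; inhibitor potency against ADAM10 proteolytic activity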
HEK293 [12] = test: cells; settings: Homo sapiens
[13] = biological target: Disintegrin and metalloproteinase domain-containing protein 17 (Homo sapiens, UniProt P78536); test: ADAM17 protease inhibitors, dose response, counter-screen for ADAM10 exosite inhibitor project, biochemical, quenched FRET substrate (AID 743253)
HEK293 [14] = test: NOD2 signaling inhibitors in MDP-stimulated cells, cell-based, uHTS, luminescence (AID 2001); assay type: functional; settings: Homo sapiens

Tumor necrosis factor, sequence (P01375 whole entry): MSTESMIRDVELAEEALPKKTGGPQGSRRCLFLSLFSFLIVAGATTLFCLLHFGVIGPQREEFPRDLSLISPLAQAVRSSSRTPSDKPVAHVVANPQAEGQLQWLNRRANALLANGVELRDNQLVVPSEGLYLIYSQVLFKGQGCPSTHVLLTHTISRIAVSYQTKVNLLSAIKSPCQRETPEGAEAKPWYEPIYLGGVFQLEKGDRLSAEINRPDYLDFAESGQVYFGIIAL
Disintegrin and metalloproteinase domain-containing protein 17, sequence (P78536 whole entry, the tested form may be a part): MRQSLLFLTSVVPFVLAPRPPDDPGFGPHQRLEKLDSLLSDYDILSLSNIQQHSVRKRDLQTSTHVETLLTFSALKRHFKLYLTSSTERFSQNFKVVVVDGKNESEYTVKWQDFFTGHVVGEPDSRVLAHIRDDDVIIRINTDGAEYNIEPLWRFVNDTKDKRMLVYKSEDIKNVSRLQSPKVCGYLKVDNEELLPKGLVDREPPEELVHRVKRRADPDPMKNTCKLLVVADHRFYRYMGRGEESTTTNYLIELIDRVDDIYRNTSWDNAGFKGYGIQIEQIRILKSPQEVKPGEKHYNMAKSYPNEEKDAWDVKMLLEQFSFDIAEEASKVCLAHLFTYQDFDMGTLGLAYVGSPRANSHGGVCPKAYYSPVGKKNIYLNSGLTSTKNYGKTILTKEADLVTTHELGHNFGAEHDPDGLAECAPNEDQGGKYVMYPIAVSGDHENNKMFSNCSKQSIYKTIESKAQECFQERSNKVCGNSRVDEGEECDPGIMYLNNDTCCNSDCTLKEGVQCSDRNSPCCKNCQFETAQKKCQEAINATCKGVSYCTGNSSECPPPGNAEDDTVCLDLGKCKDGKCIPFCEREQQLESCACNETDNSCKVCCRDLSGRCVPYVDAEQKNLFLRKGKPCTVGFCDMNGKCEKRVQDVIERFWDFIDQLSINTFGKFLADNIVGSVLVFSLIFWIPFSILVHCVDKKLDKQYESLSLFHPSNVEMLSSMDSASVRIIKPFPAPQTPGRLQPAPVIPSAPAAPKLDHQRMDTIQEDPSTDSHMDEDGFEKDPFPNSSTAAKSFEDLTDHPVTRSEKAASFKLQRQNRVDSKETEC
Kallikrein-7, sequence (P49862 whole entry): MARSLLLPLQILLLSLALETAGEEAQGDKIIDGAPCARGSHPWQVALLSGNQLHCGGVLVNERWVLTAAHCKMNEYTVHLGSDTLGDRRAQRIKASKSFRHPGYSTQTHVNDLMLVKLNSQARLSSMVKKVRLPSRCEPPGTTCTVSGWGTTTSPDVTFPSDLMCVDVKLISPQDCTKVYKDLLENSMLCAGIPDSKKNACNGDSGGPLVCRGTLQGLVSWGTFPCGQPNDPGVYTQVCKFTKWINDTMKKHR
Sphingosine 1-phosphate receptor 2, sequence (O95136 whole entry): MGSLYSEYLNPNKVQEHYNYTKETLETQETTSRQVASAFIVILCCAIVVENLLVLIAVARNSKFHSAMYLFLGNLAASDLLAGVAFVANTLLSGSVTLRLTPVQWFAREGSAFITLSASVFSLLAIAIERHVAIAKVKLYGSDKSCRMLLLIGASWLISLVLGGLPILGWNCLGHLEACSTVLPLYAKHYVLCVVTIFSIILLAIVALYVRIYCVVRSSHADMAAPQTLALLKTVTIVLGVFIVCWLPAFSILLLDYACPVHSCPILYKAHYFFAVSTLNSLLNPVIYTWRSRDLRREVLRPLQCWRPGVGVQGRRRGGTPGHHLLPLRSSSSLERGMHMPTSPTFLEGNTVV

CCC(=O)Nc1ccccc1C(=O)OCC(=O)c1ccccc1
IC50 [1]: 2.13 µM (active)
EC50 [2]: 46.9 µM (active)

O=C(Nc1ccc(NC(=O)c2cccs2)cc1)c1cccs1
EC50 (Kallikrein-7): > 69.5 µM (inactive)

Cc1cccc2cc(C(c3nnnn3CC3CCCO3)N3CCc4ccccc4C3)c(=O)[nH]c12 (stereo not drawn)
EC50 [3]: > 50 µM (not active)

COC(=O)NCCOC(=O)N(O)c1ccc(Br)cc1
IC50 [1]: 16.7 µM (not active)

Cc1ccc(O)c(-c2cc(-c3ccc(F)cc3)no2)c1
IC50 [4]: > 67.5 µM (inactive)
EC50 (cells): > 67.5 µM (inactive)
EC50 [5]: > 67.5 µM (inactive)
IC50 (HEK293 [6]): > 67.5 µM (inactive)

CCOc1ccc(NC(=O)c2ccc(CN3CCc4ccccc4C3)cc2)cc1
IC50 (Tumor necrosis factor): 6.05 µM (active) and 2.05 µM (active)
IC50 (HEK293 [7]): 3.96 µM (active)
IC50 (HEK293 [8]): > 20 µM (inactive)
EC50 (HEK293 [9]): 0.79 µM (active)
IC50 [10]: 1.79 µM (active) and 1.13 µM (active)
IC50 [11]: > 69.5 µM (inactive)
IC50 (HEK293 [12]): > 20 µM (inactive)
IC50 [13]: > 69.5 µM (inactive)
IC50 (HEK293 [14]): > 20 µM (inactive)
